Laboratory results: patent US9078907B2, “Immunoregulator compounds” (Universita Degli Studi Di Roma “Tor Vergata”, priority 2001, dated 2015)

System: macrophages
Test: ROI generation by dichlorofluorescein (DCF) flow cytometry
Type: cell-based, human
Description: Because dichloro fluorescein (DCF) is a fluorochrome obtained from reaction of non fluorescent 2, 7-dichloro fluorescein diacetate (DCFH) with various oxidants, analysis thereof is used to detect cellular oxidative stress and amount of oxygen reactive intermediates (ROI) produced by phagocytic cells. In the used model, this analysis is employed in order to monitor the D-erythro-sphingosine 1-phosphate (S1P) modulated ROI production from macrophages. Macrophages were incubated for 90 minutes with sphingosine 1-phosphate at 0.5 μM, 5 μM, 10 μM and 50 μM concentrations. After the incubation 100 μl of 0.4 μM DCFH (Calbiochem) were added and incubated for at least 30 minutes. Finally, cells were washed with PBS and analysed using FACScan flow cytometer from Becton Dickinson.

CCCCCCCCCCCCC/C=C/[C@@H](O)[C@@H](N)COP(=O)(O)O [S1P, D-erythro-sphingosine 1-phosphate] was tested, and the “ROI production by macrophages over the time” value (5 μM S1P, DCF positive response after 30 and 90 minutes) was “increases progressively over the time” and the “S1P dose giving maximum DCF positive response” value (scalar S1P doses, % DCF positive cells) was 5-10 μm.
